Experimental data published in US8283322B2, “Formulations for nonsurgical exogenous crosslink therapy” (Orthopeutics, LP, priority 2008, dated 2012).
“Also recorded” adds a separate entry of the source. Each block holds one molecule with its values, some of them ahead of it.

Key:
[1] = tested on: homogenized annulus tissue; experiment: Crosslinking of annulus tissue quantified by hydroxyproline release upon collagenase digestion; settings: for concentration at which crosslinking was complete / a plateau was reached: FIG. 1, 1 hr (MG), 6 hrs (DT and LT); for pH: optimized pH for crosslinking; for pH dependence of crosslinking: sub-saturating crosslinker, pH 4-9 with a different buffer at each pH (FIG. 2, FIG. 3); for effect of buffer (EPPS vs Tris) on crosslinking: 100 mM EPPS or 100 mM Tris, GP at pH 9; for effect of phosphate on crosslinking: Tris buffer pH 8, increasing concentrations of sodium phosphate
Description: (§1) Increasing concentrations of protein crosslinkers were added to homogenized annulus tissue and incubated for either 1 hr (EDC, GP, MG, PA and GA), 2 hrs (TG) or 6 hrs (DT and LT). Crosslinking was quantified by determining the amount of hydroxyproline (HYP) released from the tissue by collagenase digestion.
(§2) Homogenized annulus tissue was treated with sub-saturating concentrations of various crosslinkers at varying pH and incubated for either 1 hr (EDC, GP, MG, PA and GA), 2 hrs (TG) or 6 hrs (LT). Crosslinking was quantified by determining the amount of hydroxyproline (HYP) released from the tissue by collagenase digestion.
(§3) In order to determine the effective concentration range for various crosslinking reagents we incubated samples of annulus tissue in increasing concentrations of either genipin (GP), methylglyoxal (MG), proanthrocyanidin (PA), L-threose (LT), D-threose (DT), dimethylaminopropyl) carbodiimide hydrochloride (EDC) or transglutaminase (TG). Crosslinking efficiency was measured indirectly by monitoring the release of peptides containing hydroxyproline upon subsequent digestion with collagenase. Glutaraldehyde (GA), a commonly used, but highly toxic protein crosslinker was used as a positive control.
(§4) To test this hypothesis, the inventors subjected calf annulus fibrosus tissue to crosslinking with sub-saturating levels of our reagents at varying pH. In order to maintain optimal buffering capacity at each pH, different buffers were selected for each point.

[2] = tested on: homogenized annulus tissue; settings: bovine
Description: as §1, §2, §3, §4

[3] = in water; proposed values; cited from earlier work
[4] = at 20° C.; cited from earlier work
[5] = saturating crosslinker concentration, Table 5
[6] = sub-saturating MG, 100 mM MOPS pH 7

Molecule: O=C[C@@H](O)[C@H](O)CO [D-Threose, D-threose]
- concentration at which crosslinking was complete / a plateau was reached [1]: approximately 50 mM
- [Saturating] [1, 5]: 50 mM

Molecule: CCN=C=NCCCN(C)C.Cl [EDC, 1-ethyl-3-[3-dimethylaminopropyl]carbodiimide hydrochloride]
- pH ([1]; Table 5): 6
- [Saturating] [1, 5]: 2.5 to 5 mM
- pH dependence of crosslinking [1]: required a relatively narrow pH range

Molecule: O=C[C@H](O)[C@@H](O)CO [L-Threose, L-threose]
- T1/2 [2]: 150 min
- max solubility [3]: comparable to MG
- effect of buffer (EPPS vs Tris) on crosslinking [1]: did not see any difference
- concentration at which crosslinking was complete / a plateau was reached [1]: approximately 50 mM
- pH ([1]; Table 5): 8-9
- [Saturating] [1, 5]: 50 mM
- pH dependence of crosslinking [1]: function better in disc tissue at the higher pH levels

Molecule: CC(=O)C=O [Methylglyoxal, methylglyoxal]
- T1/2 [2]: 14 to 20 min
- max solubility [3]: about 6 M
- enhancement of crosslinking by phosphate ([1]; 100 mM EPPS pH 8, 100 mM potassium phosphate, p=0.1): approximately 3 fold
- concentration at which crosslinking was complete / a plateau was reached [1]: 50 mM
- effect of phosphate on crosslinking [1]: enhance disc tissue crosslinking in a dose-dependent manner
- [Saturating] ([1]; at pH 7): 30 to 50 mM
- [Saturating] ([1]; at pH 8 (100 mM EPPS buffer), listed as MG): 10 mM
- pH ([1]; Table 5): 8-9
- borohydride concentration at which the crosslinking reaction was enhanced [1, 6]: 1 to 5 mM
- effect of 10 mM borohydride on crosslinking [1, 6]: inhibitory
- borohydride concentration at which enhancement was observed ([1]; sub-saturating MG, EPPS buffer pH 8.0): below 1.5 mM
- activity in EPPS when compared to Tris ([1]; sub-saturating MG, pH 8, 100 mM buffer, p<0.0001, n=10): ~2 fold
- pH dependence of crosslinking ([1]; listed as MG): function better in disc tissue at the higher pH levels; also recorded: equally efficient at pH 8 and 9; also recorded: marked increase in its crosslinking ability at pH 8 compared to pH 7

Molecule: tris(hydroxymethyl)aminomethane
- pKa [4]: 8.3

Second part, led by results:

- T1/2 [2]: <5 min
Molecule: O=CCCCC=O [Glutaraldehyde, reference compound]
- pH ([1]; Table 5): 8-9
- [Saturating] [1, 5]: 1 to 2 mM

- T1/2 [2]: <5 min
- effect of buffer (EPPS vs Tris) on crosslinking [1]: did not see any difference
- effect of phosphate on crosslinking [1]: did not have any substantial
- pH ([1]; Table 5): 5-9
- [Saturating] [1, 5]: 0.1%
- pH dependence of crosslinking [1]: relatively insensitive to pH
Molecule: proanthrocyanidin

- [Saturating] ([1]; 2 hrs incubation, highest concentration tested 2 U/ml): >2 U/ml
- [Saturating] ([1]; 2 hrs incubation, highest concentration tested 2 U/ml, listed as TG): > 2 U/ml
- pH ([1]; Table 5): 7-8
- pH dependence of crosslinking [1]: required a relatively narrow pH range
B1: transglutaminase (protein, UniProt P21980 2-687, looked up)
Protein-glutamine …: AEELVLERCDLELETNGRDHHTADLCREKLVVRRGQPFWLTLHFEGRNYEASVDSLTFSVVTGPAPSQEAGTKARFPLRDAVEEGDWTATVVDQQDCTLSLQLTTPANAPIGLYRLSLEASTGYQGSSFVLGHFILLFNAWCPADAVYLDSEEERQEYVLTQQGFIYQGSAKFIKNIPWNFGQFEDGILDICLILLDVNPKFLKNAGRDCSRRSSPVYVGRVVSGMVNCNDDQGVLLGRWDNNYGDGVSPMSWIGSVDILRRWKNHGCQRVKYGQCWVFAAVACTVLRCLGIPTRVVTNYNSAHDQNSNLLIEYFRNEFGEIQGDKSEMIWNFHCWVESWMTRPDLQPGYEGWQALDPTPQEKSEGTYCCGPVPVRAIKEGDLSTKYDAPFVFAEVNADVVDWIQQDDGSVHKSINRSLIVGLKISTKSVGRDEREDITHTYKYPEGSSEEREAFTRANHLNKLAEKEETGMAMRIRVGQSMNMGSDFDVFAHITNNTAEEYVCRLLLCARTVSYNGILGPECGTKYLLNLNLEPFSEKSVPLCILYEKYRDCLTESNLIKVRALLVEPVINSYLLAERDLYLENPEIKIRILGEPKQKRKLVAEVSLQNPLPVALEGCTFTVEGAGLTEEQKTVEIPDPVEAGEEVKVRMDLLPLHMGLHKLVVNFESDKLKAVKGFRNVIIGPA
